tested on: GM01896 cells (MPS II dermal fibroblasts); experiment: Assay 1: MPS cellular assay, MPS II (heparan sulfate disaccharide biomarkers by LC-MS); format: cell-based, human; conditions: Assay 1 for MPS II, heparan sulfate disaccharide biomarkers (I2a4, I2a6, I2S0 and/or I2S6), read-out: IC50 Range
In short: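 Heparan sulfate disaccharide biomarkers quantified by LC-MS after heparinase I/II/III digestion and isotopic aniline labelling, using GM01896 MPS II fibroblasts exposed to compound (at or below 30 μM, 4-21 days). Values given as IC50 by curve fitting; cell viability checked with alamar blue or ATP.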

Q: Cc1nn(C)c2cc(-c3cc(Nc4ccc5nn(C)nc5c4)nc(N4CCOCC4)n3)ccc12 [[6-(1,3-dimethyl(1H-indazol-6-yl))-2-morpholin-4-ylpyrimidin-4-yl](2-methyl(2-hydrobenzotriazol-5-yl))amine] was tested. Which IC50 did it give?
A: Its IC50 is 1000 to 5000 nM.

same assay, conditions: Homo sapiens, Fibroblast, Assay 1 for MPS II, heparan sulfate disaccharide biomarkers (I2a4, I2a6, I2S0 and/or I2S6), read-out: IC50 Range

Q: How did the IC50 turn out when Cn1cnnc1-c1ccc(Nc2cc(-c3ccc4cnn(C)c4c3)nc(N3CCOCC3)n2)cc1 [[4-(4-methyl(1,2,4-triazol-3-yl))phenyl][6-(1-methyl(1H-indazol-6-yl))-2-morpholin-4-ylpyrimidin-4-yl]amine] was run?
A: Its IC50 is 1000 to 5000 nM.

Q: How did the IC50 turn out when Cn1ncc2ccc(-c3cc(Nc4ccc(-c5nnc(C6CC6)[nH]5)cc4)nc(N4CCOCC4)n3)cc21 [[4-(5-cyclopropyl(4H-1,2,4-triazol-3-yl))phenyl][6-(1-methyl(1H-indazol-6-yl))-2-morpholin-4-ylpyrimidin-4-yl]amine] was run?
A: Its IC50 is less than 500 nM.

Q: Which IC50 does the source give for Cn1nc(CCN2CCOCC2)c2ccc(-c3cc(Nc4ccc(-c5nnc(C6CC6)[nH]5)cc4)nc(N4CCOCC4)n3)cc21 [[4-(5-cyclopropyl(4H-1,2,4-triazol-3-yl))phenyl]{6-[1-methyl-3-(2-morpholin-4-ylethyl)(1H-indazol-6-yl)]-2-morpholin-4-ylpyrimidin-4-yl}amine] here?
A: The IC50 was less than 500 nM.

Q: For Cc1nc(-c2ccc(Nc3cc(-c4ccc5cnn(C)c5c4)nc(N4CCOCC4)n3)cc2)no1 [[4-(5-methyl(1,2,4-oxadiazol-3-yl))phenyl][6-(1-methyl(1H-indazol-6-yl))-2-morpholin-4-ylpyrimidin-4-yl]amine], which IC50 is on record?
A: Its IC50 is 1000 to 5000 nM.

Q: For Cc1nnc(-c2ccc(Nc3cc(-c4cnc5cnn(C)c5c4)nc(N4CCOCC4)n3)cc2)[nH]1 [[4-(5-methyl(4H-1,2,4-triazol-3-yl))phenyl][6-(1-methylpyrazolo[4,5-b]pyridin-6-yl)-2-morpholin-4-ylpyrimidin-4-yl]amine], which IC50 is on record?
A: The IC50 was less than 500 nM.

Q: For Cc1nnc(-c2ccc(Nc3cc(-c4ccc5cnn(CCN6CCOCC6)c5c4)nc(N4CCOCC4)n3)cc2)[nH]1 [[4-(5-methyl(4H-1,2,4-triazol-3-yl))phenyl]{2-morpholin-4-yl-6-[1-(2-morpholin-4-ylethyl)(1H-indazol-6-yl)]pyrimidin-4-yl}amine], which IC50 is on record?
A: The IC50 was less than 500 nM.

Q: Which IC50 does the source give for Cc1nnc(-c2ccc(Nc3cc(-c4ccc5c(CCN6CCOCC6)nn(C)c5c4)nc(N4CCOCC4)n3)cc2)[nH]1 [[4-(5-methyl(4H-1,2,4-triazol-3-yl))phenyl]{6-[1-methyl-3-(2-morpholin-4-ylethyl)(1H-indazol-6-yl)]-2-morpholin-4-ylpyrimidin-4-yl}amine] here?
A: Its IC50 is less than 500 nM.

Q: Which IC50 does the source give for Cc1nnc(-c2ccc(Nc3cc(-c4ccc5c(C)nn(CCN6CCOCC6)c5c4)nc(N4CCOCC4)n3)cc2)[nH]1 [[4-(5-methyl(4H-1,2,4-triazol-3-yl))phenyl]{6-[3-methyl-1-(2-morpholin-4-ylethyl)(1H-indazol-6-yl)]-2-morpholin-4-ylpyrimidin-4-yl}amine] here?
A: The IC50 was less than 500 nM.

Q: With CNC(=O)c1ccc(Nc2cc(-c3ccc4cnn(CCOC)c4c3)nc(N3CCOCC3)n2)cc1 [[4-({6-[1-(2-methoxyethyl)(1H-indazol-6-yl)]-2-morpholin-4-ylpyrimidin-4-yl}amino)phenyl]-N-methylcarboxamide] as the compound, how does the IC50 read?
A: Its IC50 is less than 500 nM.

Q: How did the IC50 turn out when CNC(=O)c1ccc(Nc2cc(-c3ccc4ncn(CCOC)c4c3)nc(N3CCOCC3)n2)cc1 [[4-({6-[1-(2-methoxyethyl)benzimidazol-6-yl]-2-morpholin-4-ylpyrimidin-4-yl}amino)phenyl]-N-methylcarboxamide] was run?
A: The IC50 was less than 500 nM.

Q: Which IC50 does the source give for CNC(=O)c1ccc(Nc2cc(-c3ccc4cnn(CC5CC5)c4c3)nc(N3CCOCC3)n2)cc1 [[4-({6-[1-(cyclopropylmethyl)(1H-indazol-6-yl)]-2-morpholin-4-ylpyrimidin-4-yl}amino)phenyl]-N-methylcarboxamide] here?
A: Its IC50 is less than 500 nM.

Q: For CNC(=O)c1ccc(Nc2cc(-c3ccc4nc(C)n(CC5CC5)c4c3)nc(N3CCOCC3)n2)cc1 [[4-({6-[1-(cyclopropylmethyl)-2-methylbenzimidazol-6-yl]-2-morpholin-4-ylpyrimidin-4-yl}amino)phenyl]-N-methylcarboxamide], which IC50 is on record?
A: Its IC50 is less than 500 nM.

Q: How did the IC50 turn out when CNC(=O)c1ccc(Nc2cc(-c3ccc4c(c3)ncn4CC3CC3)nc(N3CCOCC3)n2)cc1 [[4-({6-[1-(cyclopropylmethyl)benzimidazol-5-yl]-2-morpholin-4-ylpyrimidin-4-yl}amino)phenyl]-N-methylcarboxamide] was run?
A: Its IC50 is less than 500 nM.

Q: For CNC(=O)c1ccc(Nc2cc(-c3ccc4ncn(CC5CC5)c4c3)nc(N3CCOCC3)n2)cc1 [[4-({6-[1-(cyclopropylmethyl)benzimidazol-6-yl]-2-morpholin-4-ylpyrimidin-4-yl}amino)phenyl]-N-methylcarboxamide], which IC50 is on record?
A: Its IC50 is less than 500 nM.

Q: Which IC50 does the source give for CNC(=O)c1ccc(Nc2cc(-c3ccc4c(c3)ncn4CC3CC3)nc(N3CCOCC3)n2)cn1 [[5-({6-[1-(cyclopropylmethyl)benzimidazol-5-yl]-2-morpholin-4-ylpyrimidin-4-yl}amino)(2-pyridyl)]-N-methylcarboxamide] here?
A: Its IC50 is 500 to 1000 nM.

Q: CNC(=O)c1ccc(Nc2cc(-c3ccc4ncn(CC5CC5)c4c3)nc(N3CCOCC3)n2)cn1 [[5-({6-[1-(cyclopropylmethyl)benzimidazol-6-yl]-2-morpholin-4-ylpyrimidin-4-yl}amino)(2-pyridyl)]-N-methylcarboxamide] was tested. Which IC50 did it give?
A: The IC50 was less than 500 nM.

Q: With CNC(=O)c1ccc(Nc2cc(-c3ccc4nn(CC5CC5)cc4c3)nc(N3CCOCC3)n2)cn1 [[5-({6-[2-(cyclopropylmethyl)(2H-indazol-5-yl)]-2-morpholin-4-ylpyrimidin-4-yl}amino)(2-pyridyl)]-N-methylcarboxamide] as the compound, how does the IC50 read?
A: The IC50 was 1000 to 5000 nM.

Q: CNC(=O)c1ccc(Nc2cc(-c3ccc4cn(CC5CC5)nc4c3)nc(N3CCOCC3)n2)cn1 [[5-({6-[2-(cyclopropylmethyl)(2H-indazol-6-yl)]-2-morpholin-4-ylpyrimidin-4-yl}amino)(2-pyridyl)]-N-methylcarboxamide] was tested. Which IC50 did it give?
A: Its IC50 is 1000 to 5000 nM.

Q: Which IC50 does the source give for Cc1nc2ccc(-c3cc(Nc4ccc(Cl)cc4)nc(N4CCOCC4)n3)cc2n1C [[6-(1,2-dimethylbenzimidazol-6-yl)-2-morpholin-4-ylpyrimidin-4-yl](4-chlorophenyl)amine] here?
A: Its IC50 is 500 to 1000 nM.

Q: Which IC50 does the source give for Cc1nn(C)c2cc(-c3cc(Nc4ccc5c(C)c(C)n(C)c5c4)nc(N4CCOCC4)n3)ccc12 [[6-(1,3-dimethyl(1H-indazol-6-yl))-2-morpholin-4-ylpyrimidin-4-yl](1,2,3-trimethylindol-6-yl)amine] here?
A: The IC50 was 1000 to 5000 nM.

Q: Which IC50 does the source give for Cc1nn(C)c2cc(-c3cc(Nc4ccc5cc(C)n(C)c5c4)nc(N4CCOCC4)n3)ccc12 [[6-(1,3-dimethyl(1H-indazol-6-yl))-2-morpholin-4-ylpyrimidin-4-yl](1,2-dimethylindol-6-yl)amine] here?
A: Its IC50 is 500 to 1000 nM.

Q: CCn1ccc2ccc(Nc3cc(-c4ccc5c(C)nn(C)c5c4)nc(N4CCOCC4)n3)cc21 [[6-(1,3-dimethyl(1H-indazol-6-yl))-2-morpholin-4-ylpyrimidin-4-yl](1-ethylindol-6-yl)amine] was tested. Which IC50 did it give?
A: Its IC50 is 1000 to 5000 nM.

Q: Which IC50 does the source give for Cc1nn(C)c2cc(-c3cc(Nc4ccc5ncn(C)c5c4)nc(N4CCOCC4)n3)ccc12 [[6-(1,3-dimethyl(1H-indazol-6-yl))-2-morpholin-4-ylpyrimidin-4-yl](1-methylbenzimidazol-6-yl)amine] here?
A: The IC50 was 1000 to 5000 nM.

Q: For Cc1nn(C)c2cc(-c3cc(Nc4ccc5c(ccn5C)c4)nc(N4CCOCC4)n3)ccc12 [[6-(1,3-dimethyl(1H-indazol-6-yl))-2-morpholin-4-ylpyrimidin-4-yl](1-methylindol-5-yl)amine], which IC50 is on record?
A: The IC50 was 500 to 1000 nM.

Q: Which IC50 does the source give for Cc1nn(C)c2cc(-c3cc(Nc4ccc5ccn(C)c5c4)nc(N4CCOCC4)n3)ccc12 [[6-(1,3-dimethyl(1H-indazol-6-yl))-2-morpholin-4-ylpyrimidin-4-yl](1-methylindol-6-yl)amine] here?
A: The IC50 was less than 500 nM.

Q: With Cc1nn(C)c2cc(-c3cc(Nc4ccc5nn(C)cc5c4)nc(N4CCOCC4)n3)ccc12 [[6-(1,3-dimethyl(1H-indazol-6-yl))-2-morpholin-4-ylpyrimidin-4-yl](2-methyl(2H-indazol-5-yl))amine] as the compound, how does the IC50 read?
A: The IC50 was 1000 to 5000 nM.

Q: With Cc1nn(C)c2cc(-c3cc(Nc4ccc5cn(C)nc5c4)nc(N4CCOCC4)n3)ccc12 [[6-(1,3-dimethyl(1H-indazol-6-yl))-2-morpholin-4-ylpyrimidin-4-yl](2-methyl(2H-indazol-6-yl))amine] as the compound, how does the IC50 read?
A: The IC50 was 1000 to 5000 nM.

Q: For Cc1nn(C)c2cc(-c3cc(Nc4ccc(-n5nccn5)cc4)nc(N4CCOCC4)n3)ccc12 [[6-(1,3-dimethyl(1H-indazol-6-yl))-2-morpholin-4-ylpyrimidin-4-yl](4-(1,2,3-triazol-2-yl)phenyl)amine], which IC50 is on record?
A: Its IC50 is less than 500 nM.

Q: How did the IC50 turn out when Cc1nn(C)c2cc(-c3cc(Nc4ccc(-c5ncon5)cc4)nc(N4CCOCC4)n3)ccc12 [[6-(1,3-dimethyl(1H-indazol-6-yl))-2-morpholin-4-ylpyrimidin-4-yl](4-(1,2,4-oxadiazol-3-yl)phenyl)amine] was run?
A: The IC50 was 500 to 1000 nM.

Q: For Cc1nn(C)c2cc(-c3cc(Nc4ccc(-c5ncno5)cc4)nc(N4CCOCC4)n3)ccc12 [[6-(1,3-dimethyl(1H-indazol-6-yl))-2-morpholin-4-ylpyrimidin-4-yl](4-(1,2,4-oxadiazol-5-yl)phenyl)amine], which IC50 is on record?
A: Its IC50 is 1000 to 5000 nM.

Q: Cc1nn(C)c2cc(-c3cc(Nc4ccc(-c5ncco5)cc4)nc(N4CCOCC4)n3)ccc12 [[6-(1,3-dimethyl(1H-indazol-6-yl))-2-morpholin-4-ylpyrimidin-4-yl](4-(1,3-oxazol-2-yl)phenyl)amine] was tested. Which IC50 did it give?
A: Its IC50 is 500 to 1000 nM.

Q: With Cc1nn(C)c2cc(-c3cc(Nc4ccc(-c5cocn5)cc4)nc(N4CCOCC4)n3)ccc12 [[6-(1,3-dimethyl(1H-indazol-6-yl))-2-morpholin-4-ylpyrimidin-4-yl](4-(1,3-oxazol-4-yl)phenyl)amine] as the compound, how does the IC50 read?
A: Its IC50 is less than 500 nM.

Q: For Cc1nn(C)c2cc(-c3cc(Nc4ccc(C5=NCCO5)cc4)nc(N4CCOCC4)n3)ccc12 [[6-(1,3-dimethyl(1H-indazol-6-yl))-2-morpholin-4-ylpyrimidin-4-yl](4-(1,3-oxazolin-2-yl)phenyl)amine], which IC50 is on record?
A: Its IC50 is 1000 to 5000 nM.

Source: patent US20190151312A1, “HEPARAN SULFATE BIOSYNTHESIS INHIBITORS FOR THE TREATMENT OF DISEASES” (BioMarin Pharmaceutical Inc., priority 2014, published 2019)
